Results on 49 compounds are retold here after PubChem BioAssay AID623999 (Broad Institute, 2012).

The AC50 is the midpoint of the concentration-response curve, whichever way the signal moves.

Structures are written as SMILES. Results filed as inconclusive are left out. Calls of active or inactive are those of the source.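 Rule for the calls: active = inhibition in every test run, with half-maximal concentration at most twice the top tested dose; inconclusive = the separate test runs disagree on their calls; inactive = every test run inactive, including opposite effects.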

This assay concerns the target Cyclin-dependent kinase 5 (Homo sapiens) + Cyclin-dependent kinase 5 activator 1 (Homo sapiens) (UniProt Q00535+Q15078). The assay can be described thus: inhibitors of human CDK5 activity – biochemical, ADP-Glo luminescence, dry powder samples, selectivity assay for GSK3beta inhibitor project, dose response (AID 623999). To be noted: CDK5-p25 kinase, histone H1 peptide; for activity change, negative = inhibition: at 46 µM (top of the series).

Chain of Cyclin-dependent kinase 5 (Homo sapiens) + Cyclin-dependent kinase 5 activator 1 (Homo sapiens) (Q00535 whole entry, looked up): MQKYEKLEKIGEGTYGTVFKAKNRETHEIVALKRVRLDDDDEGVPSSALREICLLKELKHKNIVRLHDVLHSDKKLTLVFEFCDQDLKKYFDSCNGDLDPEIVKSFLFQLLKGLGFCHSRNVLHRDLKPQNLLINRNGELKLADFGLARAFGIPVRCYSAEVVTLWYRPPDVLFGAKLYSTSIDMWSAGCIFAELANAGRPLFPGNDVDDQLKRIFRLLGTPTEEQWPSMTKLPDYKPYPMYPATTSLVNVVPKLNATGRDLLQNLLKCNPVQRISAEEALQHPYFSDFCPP
Chain of Cyclin-dependent kinase 5 (Homo sapiens) + Cyclin-dependent kinase 5 activator 1 (Homo sapiens) (Q15078 whole entry, looked up): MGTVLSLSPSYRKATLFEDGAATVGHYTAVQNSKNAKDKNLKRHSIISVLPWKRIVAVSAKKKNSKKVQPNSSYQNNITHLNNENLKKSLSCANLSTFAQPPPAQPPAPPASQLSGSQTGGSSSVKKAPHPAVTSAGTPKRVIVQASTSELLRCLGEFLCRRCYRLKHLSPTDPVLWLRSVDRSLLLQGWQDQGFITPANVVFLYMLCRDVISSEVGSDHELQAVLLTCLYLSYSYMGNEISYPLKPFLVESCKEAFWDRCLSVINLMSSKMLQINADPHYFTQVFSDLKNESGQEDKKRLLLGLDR

On to `COc1ccccc1-c1c2c(nc3n[nH]c(C)c13)CCC2=O`, for which the AC50 was 34.6 µM.

`Cc1[nH]nc2c1C(C)(c1ccccc1)C1=C(CC(C)(C)CC1=O)N2` (centres undefined): the half-maximal activity concentration (AC50) was 14.5 µM.

As for `Cc1[nH]nc2c1[C@@H](c1ccccc1C(F)(F)F)C1=C(CC(C)(C)CC1=O)N2`, the AC50 is 0.461 µM.

Turning to `COc1ccccc1C1C2=C(CC(C)(C)CC2=O)Nc2onc(C)c21` (centres undefined), the “activity change, negative = inhibition” value was “inactive”.

On to `CC1(C)CC(=O)C2=C(C1)Nc1n[nH]c(C(F)(F)F)c1C2c1cc(F)ccc1F` (centres undefined), for which the AC50 is 47.4 µM.

Take `COc1ccc(-c2nn(-c3ccccc3)cc2CO)cc1`: the “activity change, negative = inhibition” value was “inactive”.

Turning to `COc1ccccc1C1C(C(C)=O)=C(C)Nc2n[nH]c(C)c21` (centres undefined), the AC50 was 9.55 µM.

Consider `CNC(=O)c1cn(-c2ccccc2)nc1-c1ccc(OC)cc1`, for which the “activity change, negative = inhibition” value is “inactive”.

In the case of `CC1(C)CC(=O)C2=C(C1)Nc1n[nH]c(C(F)(F)F)c1C2c1cc(F)ccc1OC(F)(F)F` (centres undefined), the AC50 was 32.6 µM.

Turning to `CCc1[nH]nc2c1C(c1ccccc1OC)C1=C(CC(C)(C)CC1=O)N2` (centres undefined), the concentration at half-maximal activity (AC50) was 2.22 µM.

Regarding `Cc1[nH]nc2c1C(C1CCCCC1)C1=C(CC(C)(C)CC1=O)N2` (centres undefined), the “activity change, negative = inhibition” value was “inactive”.

Regarding `Cc1[nH]nc2c1C(c1ccccc1Cl)C1=C(CC(C)(C)CC1=O)N2` (centres undefined), the AC50 was 5.1 µM.

In the case of `CSc1ccccc1C1C2=C(CC(C)(C)CC2=O)Nc2n[nH]c(C)c21` (centres undefined), the half-maximal activity concentration (AC50) is 3.98 µM.

For `Cc1[nH]nc2nc3c(cc12)C(=O)CC(C)(C)C3`, the “activity change, negative = inhibition” value is “inactive”.

In the case of `CC1(C)CC(=O)C2=C(C1)Nc1n[nH]c(C(F)(F)F)c1C2c1ccccc1F` (centres undefined), the AC50 was 47.2 µM.

With `COc1ccccc1C1C2=C(CC3(CCCCC3)CC2=O)Nc2n[nH]c(C)c21` (centres undefined), the AC50 is 5.88 µM.

In the case of `COc1ccccc1C1C2=C(CCCC2=O)Nc2n[nH]c(C)c21` (centres undefined), the AC50 is 15.1 µM.

Regarding `CC1(C)CC(=O)C2=C(C1)Nc1n[nH]c(C(F)(F)F)c1C2c1cc(F)ccc1C(F)(F)F` (centres undefined), the AC50 was 8.29 µM.

For `CC1(C)CC(=O)C2=C(C1)Nc1n[nH]c(C(F)(F)F)c1C2c1ccccc1` (centres undefined), the AC50 was 22.2 µM.

In the case of `CC1(C)CC(=O)/C(=C\c2cccc(F)c2C(F)(F)F)C(=Nc2cc(C(F)(F)F)[nH]n2)C1`, the “activity change, negative = inhibition” value was “inactive”.

With `COc1cccc(-c2nn(-c3ccccc3)cc2/C=N/O)c1`, the “activity change, negative = inhibition” value was “inactive”.

Regarding `CC1(C)CC(=O)C2=C(C1)Nc1n[nH]c(C(F)(F)F)c1C2c1ccc(F)cc1C(F)(F)F` (centres undefined), the concentration at half-maximal activity (AC50) was 22.4 µM.

On to `Cc1[nH]nc2c1C(c1ccccc1C#N)C1=C(CC(C)(C)CC1=O)N2` (centres undefined), for which the AC50 is 4.04 µM.

In the case of `CC1(C)CC(=O)C2=C(C1)Nc1n[nH]c(C(F)(F)F)c1C2c1c(F)cccc1F` (centres undefined), the AC50 is 43 µM.

Regarding `O=S(=O)(Nc1ccccn1)c1ccc(N=Cc2c(O)[nH]c3ccc4ncsc4c23)cc1`, the AC50 is 0.418 µM.

In the case of `O/N=C/c1cn(-c2ccccc2)nc1-c1ccc(F)cc1`, the “activity change, negative = inhibition” value is “inactive”.

Turning to `CN(C)Cc1cn(-c2ccccc2)nc1-c1ccccc1`, the “activity change, negative = inhibition” value is “inactive”.

`CC(C)COc1ccc(-c2nn(-c3ccccc3)cc2/C=N/O)cc1`: the “activity change, negative = inhibition” value was “inactive”.

As for `Cc1ccccc1C1C2=C(CC(C)(C)CC2=O)Nc2n[nH]c(C)c21` (centres undefined), the half-maximal activity concentration (AC50) is 16.5 µM.

Take `CC1(C)CC(=O)/C(=C\c2ccccc2C(F)(F)F)C(=Nc2cc(C(F)(F)F)[nH]n2)C1`: the “activity change, negative = inhibition” value is “inactive”.

With `COc1ccccc1/C=C1\C(=O)CC(C)(C)CC1=Nc1cc(C(F)(F)F)[nH]n1`, the “activity change, negative = inhibition” value is “inactive”.

For `Cc1[nH]nc2c1C(C)C1=C(CC(C)(C)CC1=O)N2` (centres undefined), the AC50 is 27.8 µM.

Take `Cc1[nH]nc2c1C(c1ccccc1C(F)(F)F)C1=C(CC(C)(C)CC1=O)N2` (centres undefined): the AC50 is 0.841 µM.

With `Cc1cccc(C2C3=C(CC(C)(C)CC3=O)Nc3n[nH]c(C)c32)c1` (centres undefined), the AC50 is 39.7 µM.

With `COc1ccc(-c2nn(-c3ccccc3)cc2C(=O)O)cc1`, the “activity change, negative = inhibition” value is “inactive”.

As for `COc1ccccc1C1C2=C(CC(C)(C)CC2=O)Nc2n[nH]c(C(C)(C)C)c21` (centres undefined), the “activity change, negative = inhibition” value is “inactive”.

As for `COc1ccccc1C1C2=C(CC(C)(C)CC2=O)Nc2n[nH]c(C(C)C)c21` (centres undefined), the AC50 is 4.84 µM.

In the case of `O/N=C/c1cn(-c2ccccc2)nc1-c1ccccc1`, the “activity change, negative = inhibition” value is “inactive”.

Regarding `Cc1[nH]nc2c1C(c1cccc(C(F)(F)F)c1)C1=C(CC(C)(C)CC1=O)N2` (centres undefined), the AC50 was 10.9 µM.

`Cc1[nH]nc2c1C(c1cccc(C#N)c1)C1=C(CC(C)(C)CC1=O)N2` (centres undefined): the AC50 is 6.81 µM.

Take `COc1ccccc1C1C2=C(CC(C)(C)CC2=O)Nc2[nH]ncc21` (centres undefined): the concentration at half-maximal activity (AC50) was 5.82 µM.

Consider `Cc1[nH]nc2c1C(c1ccc(C#N)cc1)C1=C(CC(C)(C)CC1=O)N2` (centres undefined), for which the “activity change, negative = inhibition” value was “inactive”.

As to `CC(C)c1ccc(-c2nn(-c3ccccc3)cc2/C=N/O)cc1`, the “activity change, negative = inhibition” value is “inactive”.

Consider `COc1ccc(-c2nn(-c3ccccc3)cc2C(=O)N(C)C)cc1`, for which the “activity change, negative = inhibition” value is “inactive”.

Consider `Cc1[nH]nc2c1C(c1cccc3nonc13)C1=C(CC(C)(C)CC1=O)N2` (centres undefined), for which the AC50 is 2.57 µM.

With `O/N=C/c1cn(-c2ccccc2)nc1-c1ccc(Cl)cc1`, the AC50 was 25.4 µM.

On to `Cc1[nH]nc2c1C(c1ccc(C(F)(F)F)cc1)C1=C(CC(C)(C)CC1=O)N2` (centres undefined), for which the “activity change, negative = inhibition” value was “inactive”.

Take `COc1ccccc1C1C2=C(CCC(C)(C)C2=O)Nc2n[nH]c(C)c21` (centres undefined): the AC50 was 10.1 µM.

On to `COc1ccccc1[C@H]1C2=C(CC(C)(C)CC2=O)Nc2n[nH]c(C(F)(F)F)c21`, for which the “activity change, negative = inhibition” value is “inactive”.
